“And” between values parts separate entries of the source, which are not always exact repeats. Equal entries are not always repeated. Where two headings read alike, the source gives them in different places.
Experiments:
E. tenella [1] = assay type: in vivo, Cobb×Cobb 500 male broiler chicks; details: feces d35
E. acervulina [2] = assay type: in vivo, Cobb×Cobb 500 male broiler chicks; details: feces d35
E. maxima [3] = assay type: in vivo, Cobb×Cobb 500 male broiler chicks; details: feces d35
[4] = system: mixed Eimeria challenge (E. acervulina, E. maxima, E. tenella); parameters: species or system Cobb×Cobb 500 male broiler chicks; details: in vivo
E. acervulina [5] = assay type: in vivo, Cobb×Cobb 500 male broiler chicks; details: scored d35, scale 0-4
E. tenella [6] = assay type: in vivo, Cobb×Cobb 500 male broiler chicks; details: scored d35, scale 0-4
E. maxima [7] = assay type: in vivo, Cobb×Cobb 500 male broiler chicks; details: scored d35, scale 0-4
[8] = system: Eimeria tenella sporozoites; assay: In vitro MTT assay of Eimeria tenella sporozoite viability
C. perfringens = assay type: in vivo, Cobb×Cobb 500 male broiler chicks
[9] = Treatments In (kept in basal diet d28-35)
[10] = Treatments Out (removed from basal diet d28-35)

Compound | Average oocysts per gram (OPG) in feces E. tenella (E. tenella [1]; Treatments In) [oocysts per gram] | Average oocysts per gram (OPG) in feces E. tenella (E. tenella [1]; Treatments Out) [oocysts per gram] | Average oocysts per gram (OPG) in feces E. acervulina (E. acervulina [2]; Treatments In) [oocysts per gram] | Average oocysts per gram (OPG) in feces E. acervulina (E. acervulina [2]; Treatments Out) [oocysts per gram] | Average oocysts per gram (OPG) in feces E. maxima (E. maxima [3]; Treatments In) [oocysts per gram] | Average oocysts per gram (OPG) in feces E. maxima (E. maxima [3]; Treatments Out) [oocysts per gram] | Average lesion score Overall [4] | Average lesion score E. acervulina (E. acervulina [5]; [9]) | Average lesion score E. acervulina (E. acervulina [5]; [10]) | Average lesion score E. tenella (E. tenella [6]; [9]) | Average lesion score E. tenella (E. tenella [6]; [10]) | Average lesion score E. maxima (E. maxima [7]; [9]) | Average lesion score E. maxima (E. maxima [7]; [10]) | additional decrease of sporozoite viability ([8]; 100 ppm compared to 50 ppm) [%] | sporozoite viability (in words) ([8]; MTT assay, 50 and 100 ppm, salinomycin 60 ppm positive control) | mortality due to necrotic enteritis (in words) (C. perfringens; C. perfringens challenged birds) | FCR (in words) (C. perfringens; C. perfringens challenged broilers) | FCR (0-21 days) (C. perfringens; challenged with C. perfringens d19, 20, 21, FCR adjusted for mortality)
N=C(N/N=C/c1ccc(Cl)cc1)N/N=C/c1ccc(Cl)cc1 [Robenz ®, Robenidine] | 1034 | 3468 | 1301 | 4869 | 0 | 600 | 1.02 | 0.45 | 1.38 | 2.30 | 1.00 | 0.30 | 0.68 | – | – | – | – | –
CC[C@@H](C(=O)[C@@H](C)[C@@H](O)[C@H](C)[C@@H]1O[C@@H]([C@@H](CC)C(=O)O)CC[C@@H]1C)[C@H]1O[C@]2(C=C[C@@H](O)[C@]3(CC[C@@](C)([C@H]4CC[C@](O)(CC)[C@H](C)O4)O3)O2)[C@H](C)C[C@@H]1C [BioCox ®, salinomycin] | 1167 | 1668 | 734 | 19510 | 67 | 0 | 0.87 and 1.09 | 0.95 | 1.50 | 1.05 | 1.00 | 0.60 | 0.78 | – | – | – | – | –
O=C(OC[C@H]1O[C@@H](OC(=O)c2cc(O)c(O)c(OC(=O)c3cc(O)c(O)c(O)c3)c2)[C@H](OC(=O)c2cc(O)c(O)c(OC(=O)c3cc(O)c(O)c(O)c3)c2)[C@@H](OC(=O)c2cc(O)c(O)c(OC(=O)c3cc(O)c(O)c(O)c3)c2)[C@@H]1OC(=O)c1cc(O)c(O)c(OC(=O)c2cc(O)c(O)c(O)c2)c1)c1cc(O)c(O)c(OC(=O)c2cc(O)c(O)c(O)c2)c1 [tannic acid] | – | – | – | – | – | – | – | – | – | – | – | – | – | 5 | reductions were greater | – | – | –
bacitracin methylene disalicylate [BMD] | – | – | – | – | – | – | – | – | – | – | – | – | – | – | – | reduced | improved FCR | 1.904

— patent publication US20170106027A1, “COMPOSITIONS AND METHODS OF IMPROVING PERFORMANCE AND INTESTINAL HEALTH OF POULTRY” (Kemin Industries, Inc., priority 2015, published 2017)
